Experiments:
Type in all cases: in vivo
[1] = system: wheat (Triticum aestivum); test: Test B pre-/postemergence plant response
In short: (§1)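 Visual injury scores on a 0–100 scale (100 = complete control) relative to untreated plants, taken about 10 days post-treatment in greenhouse. Treatments were a directed preemergence soil spray and a postemergence spray at one- to two-leaf stage, using surfactant-containing solvent formulation.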

[2] = system: large (Lg) crabgrass (Digitaria sanguinalis); test: Test B pre-/postemergence plant response
In short: as §1

[3] = system: velvetleaf (Abutilon theophrasti); test: Test B pre-/postemergence plant response
In short: as §1

[4] = system: giant foxtail (Setaria faberii); test: Test B pre-/postemergence plant response
In short: as §1

[5] = system: pigweed (Amaranthus retroflexus); test: Test B pre-/postemergence plant response
In short: as §1

[6] = system: morningglory (Ipomoea spp.); test: Test B pre-/postemergence plant response
In short: as §1

[7] = system: barnyardgrass (Echinochloa crus-galli); test: Test B pre-/postemergence plant response
In short: as §1

corn (Zea mays) = test: Test B pre-/postemergence plant response
In short: as §1

[8] = system: barnyardgrass (Echinochloa crus-galli); test: Test C flooded paddy test plant response; conditions: Flood, 250 g ai/ha; scale of 0 to 100 where 0 is no effect and 100 is complete control; 13 to 15 days
In short: (§2)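 Water-applied treatment: compounds go directly into floodwater standing 3 cm over the soil of pots holding 2-leaf-stage plants. Depth is kept constant; plants stay in a greenhouse 13 to 15 days before visual comparison with controls on a 0–100 scale.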

[9] = system: small-flower umbrella sedge (Cyperus difformis); test: Test C flooded paddy test plant response; conditions: Flood, 250 g ai/ha; scale of 0 to 100 where 0 is no effect and 100 is complete control; 13 to 15 days
In short: as §2

rice (Oryza sativa) = test: Test C flooded paddy test plant response; conditions: Flood, 250 g ai/ha; scale of 0 to 100 where 0 is no effect and 100 is complete control; 13 to 15 days
In short: as §2

[10] = system: ducksalad (Heteranthera limosa); test: Test C flooded paddy test plant response; conditions: Flood, 250 g ai/ha; scale of 0 to 100 where 0 is no effect and 100 is complete control; 13 to 15 days
In short: as §2

[11] = system: galium (catchweed bedstraw, Galium aparine); test: Test B postemergence plant response
In short: (§3)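 Visual injury ratings, 0 = no effect to 100 = complete control, versus untreated controls approximately 10 days after postemergence spraying in greenhouse. Plants were at one- to two-leaf stage, 2 to 10 cm tall, in loam soil/sand blend; a dash denotes no result.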

[12] = system: blackgrass (Alopecurus myosuroides); test: Test B postemergence plant response
In short: as §3

[13] = system: Italian ryegrass (Lolium multiflorum); test: Test B pre-/postemergence plant response
In short: as §1

kochia (Kochia scoparia) = test: Test B pre-/postemergence plant response
In short: as §1

[14] = system: ragweed (common ragweed, Ambrosia elatior); test: Test B pre-/postemergence plant response
In short: as §1

[15] = 125 g ai/ha, postemergence, 0 to 100 scale, 0 no effect, 100 complete control
[16] = Postemergence, 500 g ai/ha, 0 to 100 scale (0 no effect, 100 complete control)
[17] = Preemergence, 125 g ai/ha, 0 to 100 scale where 0 is no effect and 100 is complete control
[18] = Preemergence, 500 g ai/ha, 0 to 100 scale (0 no effect, 100 complete control)
[19] = Postemergence, 1000 g ai/ha, 0 to 100 scale (0 no effect, 100 complete control)
[20] = Preemergence, 1000 g ai/ha, 0 to 100 scale (0 no effect, 100 complete control)
[21] = Postemergence, 31 g ai/ha, 0 to 100 scale (0 no effect, 100 complete control)
[22] = 31 g ai/ha, Preemergence, 0 to 100 scale where 0 is no effect and 100 is complete control
[23] = Preemergence, 125 g ai/ha, 0 to 100 scale (0 no effect, 100 complete control)

Compound: Clc1cnc(Oc2ccccc2-c2cccnc2)nc1 [Compound 4]
- Plant response rating, Wheat [1, 15]: 0
- Plant response rating, Wheat [1, 16]: 0
- Plant response rating, Wheat [1, 17]: 0
- Plant response rating, Wheat [1, 18]: 0
- Plant response rating, Crabgrass, Large [2, 15]: 20
- Plant response rating, Crabgrass, Large [2, 16]: 50
- Plant response rating, Crabgrass, Large [2, 17]: 10
- Plant response rating, Crabgrass, Large [2, 18]: 80
- Plant response rating, Velvetleaf [3, 15]: 30
- Plant response rating, Velvetleaf [3, 16]: 60
- Plant response rating, Velvetleaf [3, 17]: 0
- Plant response rating, Velvetleaf [3, 18]: 30
- Plant response rating, Foxtail, Giant [4, 15]: 0
- Plant response rating, Foxtail, Giant [4, 16]: 30
- Plant response rating, Foxtail, Giant [4, 17]: 10
- Plant response rating, Foxtail, Giant [4, 18]: 50
- Plant response rating, Pigweed [5, 15]: 30
- Plant response rating, Pigweed [5, 16]: 100
- Plant response rating, Pigweed [5, 17]: 30
- Plant response rating, Pigweed [5, 18]: 70
- Plant response rating, Morningglory [6, 15]: 0
- Plant response rating, Morningglory [6, 16]: 30
- Plant response rating, Morningglory [6, 17]: 0
- Plant response rating, Morningglory [6, 18]: 0
- Plant response rating, Barnyardgrass [7, 15]: 0
- Plant response rating, Barnyardgrass [7, 16]: 10
- Plant response rating, Barnyardgrass [7, 17]: 0
- Plant response rating, Barnyardgrass [7, 18]: 0
- Plant response rating, Corn (corn (Zea mays); [17]): 0
- Plant response rating, Corn (corn (Zea mays); [18]): 0
- Barnyardgrass plant response rating [8]: 0
- Sedge, Umbrella plant response rating [9]: 0
- Rice plant response rating (rice (Oryza sativa)): 0
- Ducksalad plant response rating [10]: 0

Compound: Cn1ccc(-c2ccccc2Oc2ncc(Cl)cn2)n1 [Compound 10]
- Plant response rating, Wheat [1, 15]: 0
- Plant response rating, Wheat [1, 16]: 0
- Plant response rating, Wheat [1, 19]: 0
- Plant response rating, Wheat [1, 17]: 0
- Plant response rating, Wheat [1, 18]: 0
- Plant response rating, Wheat [1, 20]: 0
- Plant response rating, Crabgrass, Large [2, 15]: 0
- Plant response rating, Crabgrass, Large [2, 16]: 0
- Plant response rating, Crabgrass, Large [2, 19]: 10
- Plant response rating, Crabgrass, Large [2, 17]: 0
- Plant response rating, Crabgrass, Large [2, 18]: 0
- Plant response rating, Crabgrass, Large [2, 20]: 10
- Plant response rating, Velvetleaf [3, 15]: 0
- Plant response rating, Velvetleaf [3, 16]: 20
- Plant response rating, Velvetleaf [3, 19]: 20
- Plant response rating, Velvetleaf [3, 17]: 0
- Plant response rating, Velvetleaf [3, 18]: 0
- Plant response rating, Velvetleaf [3, 20]: 0
- Plant response rating, Foxtail, Giant [4, 15]: 0
- Plant response rating, Foxtail, Giant [4, 16]: 0
- Plant response rating, Foxtail, Giant [4, 19]: 10
- Plant response rating, Foxtail, Giant [4, 17]: 0
- Plant response rating, Foxtail, Giant [4, 18]: 0
- Plant response rating, Foxtail, Giant [4, 20]: 0
- Plant response rating, Pigweed [5, 15]: 0
- Plant response rating, Pigweed [5, 16]: 20
- Plant response rating, Pigweed [5, 19]: 50
- Plant response rating, Pigweed [5, 17]: 0
- Plant response rating, Pigweed [5, 18]: 30
- Plant response rating, Pigweed [5, 20]: 10
- Plant response rating, Morningglory [6, 15]: 20
- Plant response rating, Morningglory [6, 16]: 30
- Plant response rating, Morningglory [6, 19]: 10
- Plant response rating, Morningglory [6, 17]: 0
- Plant response rating, Morningglory [6, 18]: 0
- Plant response rating, Morningglory [6, 20]: 0
- Plant response rating, Barnyardgrass [7, 15]: 0
- Plant response rating, Barnyardgrass [7, 16]: 0
- Plant response rating, Barnyardgrass [7, 19]: 10
- Plant response rating, Barnyardgrass [7, 17]: 0
- Plant response rating, Barnyardgrass [7, 18]: 0
- Plant response rating, Barnyardgrass [7, 20]: 0
- Plant response rating, Corn (corn (Zea mays); [15]): 0
- Plant response rating, Corn (corn (Zea mays); [16]): 0
- Plant response rating, Corn (corn (Zea mays); [19]): 0
- Plant response rating, Corn (corn (Zea mays); [17]): 0
- Plant response rating, Corn (corn (Zea mays); [18]): 0
- Plant response rating, Corn (corn (Zea mays); [20]): 0
- Barnyardgrass plant response rating [8]: 0
- Sedge, Umbrella plant response rating [9]: 0
- Rice plant response rating (rice (Oryza sativa)): 0
- Ducksalad plant response rating [10]: 0

Compound: Clc1cnc(Oc2ccccc2-c2cccc(Cl)n2)nc1 [Compound 16]
- Plant response rating, Wheat [1, 15]: 0
- Plant response rating, Wheat [1, 16]: 0
- Plant response rating, Wheat [1, 17]: 0
- Plant response rating, Wheat [1, 18]: 0
- Plant response rating, Crabgrass, Large [2, 15]: 0
- Plant response rating, Crabgrass, Large [2, 16]: 0
- Plant response rating, Crabgrass, Large [2, 17]: 0
- Plant response rating, Crabgrass, Large [2, 18]: 10
- Plant response rating, Velvetleaf [3, 15]: 0
- Plant response rating, Velvetleaf [3, 16]: 20
- Plant response rating, Velvetleaf [3, 17]: 0
- Plant response rating, Velvetleaf [3, 18]: 20
- Plant response rating, Foxtail, Giant [4, 15]: 0
- Plant response rating, Foxtail, Giant [4, 16]: 0
- Plant response rating, Foxtail, Giant [4, 17]: 0
- Plant response rating, Foxtail, Giant [4, 18]: 10
- Plant response rating, Pigweed [5, 15]: 0
- Plant response rating, Pigweed [5, 16]: 30
- Plant response rating, Pigweed [5, 17]: 0
- Plant response rating, Pigweed [5, 18]: 20
- Plant response rating, Barnyardgrass [7, 15]: 0
- Plant response rating, Barnyardgrass [7, 16]: 0
- Plant response rating, Barnyardgrass [7, 17]: 0
- Plant response rating, Barnyardgrass [7, 18]: 0
- Plant response rating, Corn (corn (Zea mays); [15]): 0
- Plant response rating, Corn (corn (Zea mays); [16]): 0
- Plant response rating, Corn (corn (Zea mays); [17]): 0
- Plant response rating, Corn (corn (Zea mays); [18]): 0
- Barnyardgrass plant response rating [8]: 0
- Sedge, Umbrella plant response rating [9]: 0
- Rice plant response rating (rice (Oryza sativa)): 0
- Ducksalad plant response rating [10]: 0

Compound: Clc1cccc(-c2ccccc2Oc2ncc(Br)cn2)n1 [Compound 17]
- Plant response rating, Wheat [1, 15]: 0
- Plant response rating, Wheat [1, 16]: 0
- Plant response rating, Wheat [1, 17]: 0
- Plant response rating, Wheat [1, 18]: 0
- Plant response rating, Crabgrass, Large [2, 15]: 0
- Plant response rating, Crabgrass, Large [2, 16]: 0
- Plant response rating, Crabgrass, Large [2, 17]: 0
- Plant response rating, Crabgrass, Large [2, 18]: 10
- Plant response rating, Velvetleaf [3, 15]: 0
- Plant response rating, Velvetleaf [3, 16]: 20
- Plant response rating, Velvetleaf [3, 17]: 0
- Plant response rating, Velvetleaf [3, 18]: 10
- Plant response rating, Foxtail, Giant [4, 15]: 0
- Plant response rating, Foxtail, Giant [4, 16]: 0
- Plant response rating, Foxtail, Giant [4, 17]: 0
- Plant response rating, Foxtail, Giant [4, 18]: 0
- Plant response rating, Pigweed [5, 15]: 0
- Plant response rating, Pigweed [5, 16]: 10
- Plant response rating, Pigweed [5, 17]: 0
- Plant response rating, Pigweed [5, 18]: 0
- Plant response rating, Barnyardgrass [7, 15]: 0
- Plant response rating, Barnyardgrass [7, 16]: 0
- Plant response rating, Barnyardgrass [7, 17]: 0
- Plant response rating, Barnyardgrass [7, 18]: 0
- Plant response rating, Corn (corn (Zea mays); [15]): 0
- Plant response rating, Corn (corn (Zea mays); [16]): 0
- Plant response rating, Corn (corn (Zea mays); [17]): 0
- Plant response rating, Corn (corn (Zea mays); [18]): 0
- Barnyardgrass plant response rating [8]: 0
- Sedge, Umbrella plant response rating [9]: 0
- Rice plant response rating (rice (Oryza sativa)): 0
- Ducksalad plant response rating [10]: 0

Compound: FC(F)c1ccc(-c2ccccc2Oc2ncc(Cl)cn2)o1 [Compound 239]
- Plant response rating, Galium [11, 15]: 0
- Plant response rating, Galium [11, 21]: 0
- Plant response rating, Blackgrass [12, 15]: 0
- Plant response rating, Blackgrass [12, 21]: 0
- Plant response rating, Wheat [1, 15]: 0
- Plant response rating, Wheat [1, 21]: 0
- Plant response rating, Foxtail, Giant [4, 22]: 0
- Plant response rating, Foxtail, Giant [4, 15]: 0
- Plant response rating, Foxtail, Giant [4, 21]: 0
- Foxtail, Giant plant response rating [4, 23]: 0
- Plant response rating, Pigweed [5, 22]: 0
- Plant response rating, Pigweed [5, 15]: 20
- Plant response rating, Pigweed [5, 21]: 0
- Pigweed plant response rating [5, 23]: 0
- Plant response rating, Barnyardgrass [7, 22]: 0
- Plant response rating, Barnyardgrass [7, 15]: 0
- Plant response rating, Barnyardgrass [7, 21]: 0
- Barnyardgrass plant response rating [7, 23]: 0
- Plant response rating, Ryegrass, Italian [13, 22]: 0
- Plant response rating, Ryegrass, Italian [13, 15]: 0
- Plant response rating, Ryegrass, Italian [13, 21]: 0
- Ryegrass, Italian plant response rating [13, 23]: 0
- Plant response rating, Kochia (kochia (Kochia scoparia); [22]): 0
- Plant response rating, Kochia (kochia (Kochia scoparia); [15]): 0
- Plant response rating, Kochia (kochia (Kochia scoparia); [21]): 0
- Kochia plant response rating (kochia (Kochia scoparia); [23]): 0
- Plant response rating, Ragweed [14, 22]: 0
- Plant response rating, Ragweed [14, 15]: 0
- Plant response rating, Ragweed [14, 21]: 0
- Ragweed plant response rating [14, 23]: 0
- Plant response rating, Corn (corn (Zea mays); [15]): 20
- Plant response rating, Corn (corn (Zea mays); [21]): 0
- Barnyardgrass plant response rating [8]: 0
- Sedge, Umbrella plant response rating [9]: 0
- Rice plant response rating (rice (Oryza sativa)): 0
- Ducksalad plant response rating [10]: 0
